# Measured values reported in article PMC4929687 (Scientific Reports, 2014).
# Molecular target: T1, human kidney-type glutaminase (KGA), catalytic domain (cKGA) (Homo sapiens, UniProt O94925)
# T1 sequence (O94925 221-533): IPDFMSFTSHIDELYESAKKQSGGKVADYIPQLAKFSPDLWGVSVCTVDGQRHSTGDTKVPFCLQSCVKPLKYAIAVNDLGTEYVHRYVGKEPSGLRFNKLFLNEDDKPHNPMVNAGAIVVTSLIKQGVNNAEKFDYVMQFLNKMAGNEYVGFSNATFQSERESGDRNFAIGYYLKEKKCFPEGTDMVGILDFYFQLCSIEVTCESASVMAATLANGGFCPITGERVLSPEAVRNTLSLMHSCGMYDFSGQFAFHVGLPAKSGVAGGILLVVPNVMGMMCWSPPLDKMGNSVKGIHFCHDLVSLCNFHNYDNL
# Assay: X-ray crystal structure at […] Å
# Format: biochemical
smiles,measurement,value
"[N-]=[N+]=CC(=O)CC[C@H](N)C(=O)O [DON, 6-diazo-5-oxo-L-norleucine]",IC50,~1000 µM
